Results published in US11180474B2 (BRISTOL-MYERS SQUIBB COMPANY, priority 2016, dated 2021).
Where a name gives a salt, the structure may show the parent alone.

Columns and labels:
human TLR7 = biological target: T1, human TLR7 (Homo sapiens, UniProt Q9NYK1); test: TLR7 inhibition reporter assay (HEK-Blue cells, SEAP reporter, gardiquimod stimulation); format: cell-based; settings: HEK-Blue cells overexpressing human TLR7, gardiquimod 7.5 μM
T1 construct: host or cells: HEK-Blue cells
T1 sequence (Q9NYK1 27-1049): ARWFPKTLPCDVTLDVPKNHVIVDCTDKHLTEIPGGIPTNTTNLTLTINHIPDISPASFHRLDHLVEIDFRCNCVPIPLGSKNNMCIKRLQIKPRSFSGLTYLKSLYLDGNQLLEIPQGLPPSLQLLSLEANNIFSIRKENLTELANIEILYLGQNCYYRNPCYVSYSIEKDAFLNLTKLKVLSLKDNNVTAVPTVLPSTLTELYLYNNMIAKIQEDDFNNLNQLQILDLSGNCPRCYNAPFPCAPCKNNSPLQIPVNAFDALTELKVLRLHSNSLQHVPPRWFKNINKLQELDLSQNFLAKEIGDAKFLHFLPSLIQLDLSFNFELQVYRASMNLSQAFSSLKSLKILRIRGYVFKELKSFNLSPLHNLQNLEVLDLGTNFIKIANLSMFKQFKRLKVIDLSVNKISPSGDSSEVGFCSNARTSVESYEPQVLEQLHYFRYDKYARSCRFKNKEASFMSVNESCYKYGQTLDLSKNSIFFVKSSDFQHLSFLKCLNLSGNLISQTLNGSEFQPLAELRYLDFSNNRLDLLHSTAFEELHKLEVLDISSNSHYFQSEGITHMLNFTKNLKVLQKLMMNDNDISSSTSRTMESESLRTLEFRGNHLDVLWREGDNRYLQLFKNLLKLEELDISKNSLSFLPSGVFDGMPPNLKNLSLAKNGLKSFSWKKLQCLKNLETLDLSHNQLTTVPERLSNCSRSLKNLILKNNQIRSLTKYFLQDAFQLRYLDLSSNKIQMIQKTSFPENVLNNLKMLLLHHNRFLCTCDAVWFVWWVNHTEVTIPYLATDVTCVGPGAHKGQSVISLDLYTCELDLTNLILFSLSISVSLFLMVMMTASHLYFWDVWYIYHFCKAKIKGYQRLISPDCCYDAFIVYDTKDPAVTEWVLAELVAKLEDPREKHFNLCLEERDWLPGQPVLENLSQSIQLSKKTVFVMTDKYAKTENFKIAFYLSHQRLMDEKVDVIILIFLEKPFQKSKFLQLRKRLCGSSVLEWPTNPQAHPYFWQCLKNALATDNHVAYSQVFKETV
Summary of the method: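 HEK-Blue reporter cells (15,000/well TLR7, 20,000 TLR8) exposed to compound over 0.05 nM–50 μM, agonist-stimulated (R848 for TLR8, gardiquimod for TLR7), 22 h at 37 °C, 5% CO2. SEAP read with HEK-Blue Detection; % inhibition relative to agonist-plus-DMSO and known-inhibitor controls.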

human TLR9 = biological target: T2, human TLR9 (Homo sapiens, UniProt Q9NR96); test: TLR9 inhibition reporter assay (HEK-Blue cells, SEAP reporter, ODN2006 stimulation); format: cell-based; settings: HEK-Blue cells overexpressing human TLR9, ODN2006 5 nM
T2 construct: host or cells: HEK-Blue cells
T2 sequence (Q9NR96 26-1032): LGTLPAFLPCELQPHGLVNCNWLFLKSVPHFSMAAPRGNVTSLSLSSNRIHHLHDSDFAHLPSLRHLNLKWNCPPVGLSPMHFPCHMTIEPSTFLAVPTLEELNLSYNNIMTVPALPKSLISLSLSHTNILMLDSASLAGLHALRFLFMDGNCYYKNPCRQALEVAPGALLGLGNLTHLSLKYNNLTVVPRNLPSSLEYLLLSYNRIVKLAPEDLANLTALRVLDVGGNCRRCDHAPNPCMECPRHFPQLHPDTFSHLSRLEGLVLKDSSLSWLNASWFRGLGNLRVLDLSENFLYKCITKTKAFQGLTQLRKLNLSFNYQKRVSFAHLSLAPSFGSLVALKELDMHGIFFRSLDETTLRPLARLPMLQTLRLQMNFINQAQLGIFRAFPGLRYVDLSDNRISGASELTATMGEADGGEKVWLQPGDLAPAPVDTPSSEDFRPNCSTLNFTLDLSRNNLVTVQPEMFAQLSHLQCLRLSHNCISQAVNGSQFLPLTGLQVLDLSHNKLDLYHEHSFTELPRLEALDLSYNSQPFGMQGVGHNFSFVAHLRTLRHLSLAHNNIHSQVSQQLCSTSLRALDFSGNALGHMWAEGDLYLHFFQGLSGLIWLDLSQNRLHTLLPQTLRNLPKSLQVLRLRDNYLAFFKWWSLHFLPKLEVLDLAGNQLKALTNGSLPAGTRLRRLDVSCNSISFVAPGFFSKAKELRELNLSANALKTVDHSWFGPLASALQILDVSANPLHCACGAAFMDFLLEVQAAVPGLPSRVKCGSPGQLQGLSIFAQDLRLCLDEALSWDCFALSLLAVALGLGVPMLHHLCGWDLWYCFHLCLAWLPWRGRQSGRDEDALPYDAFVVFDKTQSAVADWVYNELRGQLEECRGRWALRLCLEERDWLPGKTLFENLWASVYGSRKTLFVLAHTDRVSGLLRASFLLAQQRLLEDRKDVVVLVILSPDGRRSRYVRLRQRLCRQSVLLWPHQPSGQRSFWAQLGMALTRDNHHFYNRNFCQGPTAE
Summary of the method: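 Agonists used: gardiquimod 7.5 μM (TLR7), R848 15.9 μM (TLR8), ODN2006 5 nM (TLR9), added after 30 min room-temperature compound pre-treatment (0.05 nM–50 μM) of receptor-overexpressing HEK-Blue cells. SEAP reporter (NF-κB/AP-1 driven) read after 22 h at 37 °C; inhibition scaled between agonist+DMSO and reference-inhibitor wells.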

| SMILES | IC50 (human TLR7) | IC50 (human TLR9) |
| --- | --- | --- |
| CCOC(=O)C1CC1CN1CCC(N2CCC(c3ccc4[nH]c(-c5ccc(OC)c(OC)c5)c(C)c4c3)CC2)CC1 (centres unmarked) [Example 60, ethyl 2-((4-(2-(3,4-dimethoxyphenyl)-3-methyl-1H-indol-5-yl)-[1,4′-bipiperidin]-1′-yl)methyl)cyclopropane-1-carboxylate] | 270 nM | 111 nM |
| COc1ccc(-c2[nH]c3ccc(C4CCN(C5CCCN(CC(C)C)C5)CC4)cc3c2C)cc1OC (centres unmarked) [Example 416, 2-(3,4-dimethoxyphenyl)-5-(1′-isobutyl-[1,3′-bipiperidin]-4-yl)-3-methyl-1H-indole] | 677 nM | 291 nM |
| COc1ccc(-c2[nH]c3ccc(C4CCN(Cc5ccc(N6CCCC6)cc5)CC4)cc3c2C)cc1OC [Example 46, 2-(3,4-dimethoxyphenyl)-3-methyl-5-(1-(4-(pyrrolidin-1-yl)benzyl)piperidin-4-yl)-1H-indole] | 3290 nM | 746 nM |
| CCc1c(-c2ccc(OC)c(OC)c2)[nH]c2ccc(C3CCN(C(=O)CNCC(C)O)CC3)cc12 (centres unmarked) [Example 157, 1-(4-(2-(3,4-dimethoxyphenyl)-3-ethyl-1H-indol-5-yl)piperidin-1-yl)-2-((2-hydroxypropyl)amino)ethan-1-one] | 71 nM | 2840 nM |
| CCC(C)N1CCC(N2CCC(c3ccc4[nH]c(-c5ccc(OC)c(OC)c5)c(C)c4c3)CC2)CC1 (centres unmarked) [Example 71, 5-(1′-(sec-butyl)-[1,4′-bipiperidin]-4-yl)-2-(3,4-dimethoxyphenyl)-3-methyl-1H-indole] | 537 nM | 97 nM |
| COc1ccc(-c2[nH]c3ccc(C4CCN(C5CCN(C6CCCC(C(F)(F)F)C6)CC5)CC4)cc3c2C)cc1OC (centres unmarked) [Example 73] | 5090 nM | 100 nM |
| COc1ccc(-c2[nH]c3ccc(C4CCN(C5CCNCC5)CC4)cc3c2C)cc1OC [Example 2, 5-([1,4′-bipiperidin]-4-yl)-2-(3,4-dimethoxyphenyl)-3-methyl-1H-indole dihydrochloride] | 985 nM | 206 nM |
| COc1ccc(-c2[nH]c3ccc(C4CCN(CCN)CC4)cc3c2C)cc1OC [Example 100, 2-(4-(2-(3,4-dimethoxyphenyl)-3-methyl-1H-indol-5-yl)piperidin-1-yl)ethan-1-amine] | 175 nM | 543 nM |
| COc1ccc(-c2[nH]c3ccc(C4CCN(C5CCN(C)CC5)CC4)cc3c2C)cc1OC [Example 11, 2-(3,4-dimethoxyphenyl)-3-methyl-5-(1′-methyl-[1,4′-bipiperidin]-4-yl)-1H-indole] | 934 nM | 216 nM |
| CCC(CC)CN1CCC(N2CCC(c3ccc4[nH]c(-c5ccc(OC)c(OC)c5)c(C)c4c3)CC2)CC1 [Example 54, 2-(3,4-dimethoxyphenyl)-5-(1′-(2-ethylbutyl)-[1,4′-bipiperidin]-4-yl)-3-methyl-1H-indole] | 595 nM | 238 nM |
| CCN(C)CCN1CCC(c2ccc3[nH]c(-c4ccc(OC)c(OC)c4)c(C)c3c2)CC1 [Example 111, 2-(4-(2-(3,4-dimethoxyphenyl)-3-methyl-1H-indol-5-yl)piperidin-1-yl)-N-ethyl-N-methylethan-1-amine] | 387 nM | 1510 nM |
| COc1ccc(-c2[nH]c3ccc(C4CCN(Cc5ccc6ccccc6n5)CC4)cc3c2C)cc1OC [Example 35, 2-((4-(2-(3,4-dimethoxyphenyl)-3-methyl-1H-indol-5-yl)piperidin-1-yl)methyl)quinoline] | 2680 nM | 1430 nM |
| COc1ccc(-c2[nH]c3ccc(C4CCN(Cc5cccc6ncccc56)CC4)cc3c2C)cc1OC [Example 15, 5-((4-(2-(3,4-dimethoxyphenyl)-3-methyl-1H-indol-5-yl)piperidin-1-yl)methyl)quinoline] | 8300 nM | 602 nM |
| COc1ccc(-c2[nH]c3ccc(C4CCN(C(=O)CN(C)C)CC4)cc3c2C2CCOCC2)cc1OC [Example 393, 1-(4-(2-(3,4-dimethoxyphenyl)-3-(tetrahydro-2H-pyran-4-yl)-1H-indol-5-yl)piperidin-1-yl)-2-(dimethylamino)ethan-1-one] | 248 nM | 4850 nM |
| COc1ccc(-c2[nH]c3ccc(C4CCN(C5CCCC(N(C)C)C5)CC4)cc3c2C)cc1OC (centres unmarked) [Example 25, 3-(4-(2-(3,4-dimethoxyphenyl)-3-methyl-1H-indol-5-yl)piperidin-1-yl)-N,N-dimethylcyclohexan-1-amine] | 317 nM | 169 nM |
| CCc1c(-c2ccc(OC)c(OC)c2)[nH]c2ccc(C3CCN(C(=O)CN4CCOCC4)CC3)cc12 [Example 167, 1-(4-(2-(3,4-dimethoxyphenyl)-3-ethyl-1H-indol-5-yl)piperidin-1-yl)-2-morpholinoethan-1-one] | 179 nM | 33200 nM |
| COc1ccc(-c2[nH]c3ccc(C4CCN(Cc5csnn5)CC4)cc3c2C)cc1OC [Example 41, 4-((4-(2-(3,4-dimethoxyphenyl)-3-methyl-1H-indol-5-yl)piperidin-1-yl)methyl)-1,2,3-thiadiazole] | 2340 nM | 3840 nM |
| COc1ccc(-c2[nH]c3ccc(C4CCN(CCN(C)CC(C)C)CC4)cc3c2C)cc1OC [Example 110, N-(2-(4-(2-(3,4-dimethoxyphenyl)-3-methyl-1H-indol-5-yl)piperidin-1-yl)ethyl)-N,2-dimethylpropan-1-amine] | 1120 nM | 288 nM |
| COc1ccc(-c2[nH]c3ccc(C4CCN(CCN(C)CC5CC5)CC4)cc3c2C)cc1OC [Example 112, N-(cyclopropylmethyl)-2-(4-(2-(3,4-dimethoxyphenyl)-3-methyl-1H-indol-5-yl)piperidin-1-yl)-N-methylethan-1-amine] | 250 nM | 319 nM |
| CCC(C)CN1CCC(N2CCC(c3ccc4[nH]c(-c5ccc(OC)c(OC)c5)c(C)c4c3)CC2)CC1 (centres unmarked) [Example 51, 2-(3,4-dimethoxyphenyl)-3-methyl-5-(1′-(2-methylbutyl)-[1,4′-bipiperidin]-4-yl)-1H-indole] | 240 nM | 89 nM |
| CCCCN1CCC(N2CCC(c3ccc4[nH]c(-c5ccc(OC)c(OC)c5)c(C)c4c3)CC2)CC1 [Example 82, 5-(1′-butyl-[1,4′-bipiperidin]-4-yl)-2-(3,4-dimethoxyphenyl)-3-methyl-1H-indole] | 145 nM | 165 nM |
| CCc1c(-c2ccc(OC)c(OC)c2)[nH]c2ccc(C3CCN(C(=O)NC(C)C)CC3)cc12 [Example 182, 4-(2-(3,4-dimethoxyphenyl)-3-ethyl-1H-indol-5-yl)-N-isopropylpiperidine-1-carboxamide] | 610 nM | ≥ 50000 nM |
